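How tested: cells in 96-well plates exposed to compound for 48 hours at five concentrations. TGI: total growth inhibition.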
What was measured:
Assay in all cases: NCI-60 cell line screen, 48 h
[1] = tested on: IGROV1 ovarian
[2] = tested on: NCI-H522 lung
[3] = tested on: NCI-H23 lung
[4] = tested on: KM12 colon
[5] = tested on: DMS 273 small cell lung
[6] = tested on: NCI-H460 lung
[7] = tested on: MOLT-4 leukemia
[8] = tested on: RXF-631 renal
[9] = tested on: COLO 205 colon
[10] = tested on: U251 CNS
[11] = tested on: CAKI-1 renal
[12] = tested on: LXFL 529 NSCLC
[13] = tested on: HCT-116 colon
[14] = tested on: HL-60(TB) leukemia
[15] = tested on: SK-OV-3 ovarian
[16] = tested on: SR leukemia
[17] = tested on: SF-295 CNS
[18] = tested on: CCRF-CEM leukemia
[19] = tested on: OVCAR-3 ovarian
[20] = tested on: SW-620 colon
[21] = tested on: 786-0 renal
[22] = tested on: M14 melanoma
[23] = tested on: SF-539 CNS
[24] = tested on: TK-10 renal
[25] = tested on: SNB-75 CNS
[26] = tested on: RXF 393 renal
[27] = tested on: HOP-62 NSCLC
[28] = tested on: OVCAR-4 ovarian
[29] = tested on: UACC-62 melanoma
[30] = tested on: A549 NSCLC
[31] = tested on: SK-MEL-28 melanoma
[32] = tested on: K-562 leukemia
[33] = tested on: MALME-3M melanoma
[34] = tested on: DMS 114 small cell lung
[35] = tested on: SN12C renal
[36] = tested on: OVCAR-8 ovarian
[37] = tested on: SNB-78 CNS
[38] = tested on: EKVX NSCLC
[39] = tested on: OVCAR-5 ovarian
[40] = tested on: HCT-15 colon
[41] = tested on: SNB-19 CNS
[42] = tested on: UO-31 renal
[43] = tested on: DLD-1 colon
[44] = tested on: NCI-H226 lung
[45] = tested on: UACC-257 melanoma
[46] = tested on: M19-MEL melanoma
[47] = tested on: ACHN renal
[48] = tested on: SK-MEL-2 melanoma
[49] = tested on: HOP-92 NSCLC
[50] = tested on: HOP-18 NSCLC
[51] = tested on: LOX IMVI melanoma
[52] = tested on: SK-MEL-5 melanoma
[53] = tested on: RPMI-8226 leukemia
[54] = tested on: A498 renal
[55] = tested on: HT29 colon
[56] = tested on: XF 498 CNS
[57] = tested on: SF-268 CNS
[58] = tested on: KM20L2 colon
[59] = tested on: HCC-2998 colon

Structure (SMILES): O=C(O)CC(O)(c1ccccc1C(=O)O)c1cccc2ccccc12 (stereo not given)
- TGI [1]: > 100 µM
- TGI [2]: > 100 µM
- TGI [3]: > 100 µM
- TGI [4]: > 100 µM
- TGI [5]: > 100 µM
- TGI [6]: > 100 µM
- TGI [7]: > 100 µM
- TGI [8]: > 100 µM
- TGI [9]: > 100 µM
- TGI [10]: > 100 µM
- TGI [11]: > 100 µM
- TGI [12]: > 100 µM
- TGI [13]: > 100 µM
- TGI [14]: > 100 µM
- TGI [15]: > 100 µM
- TGI [16]: > 100 µM
- TGI [17]: > 100 µM
- TGI [18]: > 100 µM
- TGI [19]: > 100 µM
- TGI [20]: > 100 µM
- TGI [21]: > 100 µM
- TGI [22]: > 100 µM
- TGI [23]: > 100 µM
- TGI [24]: > 100 µM
- TGI [25]: > 100 µM
- TGI [26]: > 100 µM
- TGI [27]: > 100 µM
- TGI [28]: > 100 µM
- TGI [29]: > 100 µM
- TGI [30]: > 100 µM
- TGI [31]: > 100 µM
- TGI [32]: > 100 µM
- TGI [33]: > 100 µM
- TGI [34]: > 100 µM
- TGI [35]: > 100 µM
- TGI [36]: > 100 µM
- TGI [37]: > 100 µM
- TGI [38]: > 100 µM
- TGI [39]: > 100 µM
- TGI [40]: > 100 µM
- TGI [41]: > 100 µM
- TGI [42]: > 100 µM
- TGI [43]: > 100 µM
- TGI [44]: > 100 µM
- TGI [45]: > 100 µM
- TGI [46]: > 100 µM
- TGI [47]: > 100 µM
- TGI [48]: > 100 µM
- TGI [49]: > 100 µM
- TGI [50]: > 100 µM
- TGI [51]: > 100 µM
- TGI [52]: > 100 µM
- TGI [53]: > 100 µM
- TGI [54]: > 100 µM
- TGI [55]: > 100 µM
- TGI [56]: > 100 µM
- TGI [57]: > 100 µM

Structure (SMILES): COc1ccc2c(c1)[n+]([O-])c(-c1c(Cl)cccc1Cl)c(N)[n+]2[O-]
- TGI [1]: > 100 µM
- TGI [3]: 63.7 µM
- TGI [4]: > 100 µM
- TGI [5]: > 100 µM
- TGI [6]: > 100 µM
- TGI [7]: > 100 µM
- TGI [8]: 60.1 µM
- TGI [9]: 71.6 µM
- TGI [10]: > 100 µM
- TGI [11]: > 100 µM
- TGI [12]: > 100 µM
- TGI [14]: > 100 µM
- TGI [15]: > 100 µM
- TGI [17]: > 100 µM
- TGI [18]: > 100 µM
- TGI [58]: > 100 µM
- TGI [19]: > 100 µM
- TGI [20]: > 100 µM
- TGI [21]: > 100 µM
- TGI [22]: > 100 µM
- TGI [59]: > 100 µM
- TGI [24]: > 100 µM
- TGI [25]: > 100 µM
- TGI [28]: > 100 µM
- TGI [29]: > 100 µM
- TGI [30]: > 100 µM
- TGI [31]: 84 µM
- TGI [32]: > 100 µM
- TGI [33]: 48.4 µM
- TGI [34]: > 100 µM
- TGI [35]: > 100 µM
- TGI [36]: > 100 µM
- TGI [37]: > 100 µM
- TGI [38]: > 100 µM
- TGI [39]: > 100 µM
- TGI [40]: > 100 µM
- TGI [41]: > 100 µM
- TGI [42]: > 100 µM
- TGI [43]: > 100 µM
- TGI [44]: > 100 µM
- TGI [45]: 61.8 µM
- TGI [46]: > 100 µM
- TGI [47]: > 100 µM
- TGI [48]: > 100 µM
- TGI [49]: > 100 µM
- TGI [51]: > 100 µM
- TGI [52]: 42.9 µM
- TGI [53]: > 100 µM
- TGI [54]: > 100 µM
- TGI [55]: > 100 µM
- TGI [56]: > 100 µM
- TGI [57]: > 100 µM

Structure (SMILES): CCOc1ccccc1NC(=O)CC1Sc2ccccc2NC1=O (stereo not given)
- TGI [1]: > 100 µM
- TGI [2]: 73.7 µM
- TGI [3]: > 100 µM
- TGI [4]: > 100 µM
- TGI [5]: > 100 µM
- TGI [6]: > 100 µM
- TGI [7]: > 100 µM
- TGI [8]: > 100 µM
- TGI [9]: > 100 µM
- TGI [10]: > 100 µM
- TGI [11]: > 100 µM
- TGI [12]: > 100 µM
- TGI [13]: > 100 µM
- TGI [14]: 67.9 µM
- TGI [15]: > 100 µM
- TGI [16]: 75.7 µM
- TGI [17]: > 100 µM
- TGI [18]: > 100 µM
- TGI [58]: > 100 µM
- TGI [19]: > 100 µM
- TGI [20]: > 100 µM
- TGI [21]: > 100 µM
- TGI [22]: > 100 µM
- TGI [23]: > 100 µM
- TGI [59]: > 100 µM
- TGI [24]: > 100 µM
- TGI [25]: > 100 µM
- TGI [26]: > 100 µM
- TGI [27]: > 100 µM
- TGI [28]: > 100 µM
- TGI [29]: > 100 µM
- TGI [30]: > 100 µM
- TGI [31]: > 100 µM
- TGI [32]: > 100 µM
- TGI [33]: > 100 µM
- TGI [35]: > 100 µM
- TGI [36]: > 100 µM
- TGI [37]: > 100 µM
- TGI [38]: > 100 µM
- TGI [39]: > 100 µM
- TGI [40]: > 100 µM
- TGI [41]: > 100 µM
- TGI [42]: > 100 µM
- TGI [43]: > 100 µM
- TGI [44]: > 100 µM
- TGI [45]: > 100 µM
- TGI [46]: > 100 µM
- TGI [47]: > 100 µM
- TGI [48]: > 100 µM
- TGI [49]: 76.8 µM
- TGI [50]: > 100 µM
- TGI [51]: > 100 µM
- TGI [52]: 86.6 µM
- TGI [55]: > 100 µM
- TGI [56]: > 100 µM
- TGI [57]: > 100 µM
